From patent US20150343016A1, “CHEMICAL ENTITIES AND THERAPEUTIC USES THEREOF” (The Regents of the University of Colorado, a body corporate, priority 2010, published 2015)

System: wild type Drosophila larvae
Experiment: Drosophila larval survival to adulthood (eclosion), drug with and without IR, wild type
Type: in vivo
Conditions: for effect on the killing effect of radiation (+IR versus +both): wild type
Method: To validate the identification of Bouvardin from the primary screen, the effect of this molecule on Drosophila larvae alone or in combination with radiation were assessed (FIG. 12). The screen was performed using irradiated mutant larvae. Hits from the screen were defined as those that reduced the survival of IRRADIATED larvae compared to the population of drugs being tested (approximately 80 molecules at a time) or compared to DMSO controls in the re-test. A hit could therefore act by enhancing the effect of radiation, or by simply killing larvae as a single agent, or both. To distinguish among these possibilities, hits from the screen were re-tested against larvae with and without irradiation.
In FIG. 12 survival after each treatment is expressed as the fraction of animals that emerged (“eclosed”) as viable adults. The averages have been normalized to the average fraction eclosed in no IR/drug control for the respective genotype. Error bars extend beyond fractional survival of 1.0 simply because of normalization. (A-C) Fraction eclosed for WT and grp and p53 mutants at 16 uM of Bouvardin, with and without IR. The data are averages of 3-8 biological replicates per sample. Dotted line on each graph denotes expected ‘fraction eclosed’ if drug and IR act additively. IR doses were 4000R for WT and grp and 3000R for p53 because of the higher radiation sensitivity of the latter. (D) Fraction eclosed for Minute mutants and yw controls after exposure to 0 (−IR) and 2000R (+IR) of X-rays. N ranged from 86-207 per genotype per treatment, in 3 biological replicates per sample. *=p<0.01; **=<0.001. 100R=1Gy. Error bar=1 standard deviation.
The activity of Bouvardin in Drosophila alone or in combination with ionizing radiation (IR) was assessed. Drug concentrations of 10-20 μM were used to approximate the conditions of the original screen. Third instar larvae were irradiated and cultured on medium containing drug. The survival of larvae was quantified 10 days later by measuring the rate of eclosion into adulthood. […] For example, IR alone reduces the eclosion of p53 mutants to 0.63±0.05 and 10 μM of drug reduces it to 0.82±0.15. The combination of Bouvardin and IR reduces eclosion to 0.49, nearly the exact number expected (0.63±0.05×0.82±0.15=0.51±0.10) if the two treatments produced an additive effect. The expected eclosion for additive effect of drug and radiation are denoted with a white dotted line in each graph.
Wild type flies were of the Sevelin stock. Mutants have been described before. p535A-1-4 results from targeted deletion of the gene, and is maintained and used as homogygotes. grpl (Chk1 mutants) results from a p-element insertion and is a genetic null. Homozygotes of the latter were identified by the lack of GFP marker on the balancer chromosome. Minute mutants were of the genotypes y[1]w[*]; P[w[+mC]=lacW]RpS131/CyO and P[lacW]RpL36G0471 w67c23/FM7a. Because Minute mutants were in yw or w background, y1w1 (Bloomington stock #1495) was used as ‘wild type’ control in these experiments.
Feeding stage 3rd instar larvae were irradiated as previously described (2). Briefly, 120 hr old larvae were rinsed to remove food and passed through sizing sieves to obtain animals of uniform size. Larvae were placed in a Petri dish and irradiated using a TORREX X-ray generator, set at 115 kV and 5 mA (producing 2.4 Rads/sec or 1.44 Gy/min) Irradiated larvae were then cultured on cornmeal-agar media (2) containing drug or DMSO carrier. […]

COc1ccc(C[C@H]2C(=O)N[C@H](C)C(=O)N(C)[C@@H]3C(=O)N(C)[C@@H](Cc4ccc(O)c(c4)Oc4ccc(cc4)[C@H]3O)C(=O)N[C@@H](C)C(=O)N[C@H](C)C(=O)N2C)cc1 (stereo in doubt) [Bouvardin, bouvardin]
effect on the killing effect of radiation (+IR versus +both): not wild type | effect of drug alone on survival to adulthood (wild type flies, bouvardin up to 100 μM, no IR): very little effect | effect on the killing effect of radiation (+IR versus +both) (listed as bouvardin): did not significantly reduce survival to adulthood
